Test results: patent publication US20220402901A1 (Bial - R&D Investments, S.A., priority 2019, published 2022)
In brackets after ≈: the same amount, converted by molar mass.

Columns and labels:
[1] = biological target: T1, Human acid ceramidase (hACR) (Homo sapiens, UniProt Q13510); experiment: Acid ceramidase biochemical fluorescent assay (cell lysates overexpressing acid ceramidase, substrate Rbm14-12); settings: 10 μg lysate protein, 1 hr preincubation at RT, pH 4.5, Rbm14-12 6.3 μM
T1 construct: expressed in transfected cells; lysates of cells overexpressing acid ceramidase
T1 sequence (Q13510 22-395): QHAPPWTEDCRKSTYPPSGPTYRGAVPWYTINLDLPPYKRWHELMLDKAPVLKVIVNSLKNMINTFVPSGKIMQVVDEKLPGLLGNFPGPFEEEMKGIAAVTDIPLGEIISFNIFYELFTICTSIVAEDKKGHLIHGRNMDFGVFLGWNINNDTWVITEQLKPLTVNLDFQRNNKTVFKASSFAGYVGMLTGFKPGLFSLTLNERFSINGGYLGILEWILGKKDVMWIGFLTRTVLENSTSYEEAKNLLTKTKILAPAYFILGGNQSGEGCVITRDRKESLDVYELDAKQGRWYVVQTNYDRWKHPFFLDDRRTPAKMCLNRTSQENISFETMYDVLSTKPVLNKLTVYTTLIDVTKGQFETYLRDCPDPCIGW
Protocol: The ability of exemplary compounds to inhibit acid ceramidase was measured.
Cell lysates overexpressing acid ceramidase were used as the enzyme source for compound potency determination in a biochemical fluorescent assay. Briefly, compounds were preincubated with 10 μg protein of cell lysates in a dose-response manner for 1 hr at RT in the assay buffer containing 25 mM NaAC and 100 mM NaCl, pH 4.5. The reaction was initiated by the addition of substrate Rbm14-12 at a final concentration of 6.3 μM. The reaction was run at RT for 1 hr before it was stopped by the addition of the stopping buffer containing 20% methanol (v/v), 1 mg/ml NaIO4, 0.1 M glycine, pH 10.6. The samples were incubated with the stopping buffer at RT for 1 hr to allow the fluorescent product to be formed. Finally the plate was read with SpectraMax i3 plate reader (Molecular Devices) at ex360 nm and em446 nm. Data were collected and used to determine the IC50 values of compounds by curve fitting to the four-parameter inhibition equation.
The symbol “A” indicates inhibition of less than 0.2 μM; the symbol “B” indicates inhibition in the range of 0.2 μM up to 1 μM; and the symbol “C” indicates inhibition of greater than 1 μM.

[2] = Compound solubility in water; format: physicochemical; settings: read-out: Solubility in H2O

| Compound | IC50 [1] [µM] | solubility [2] [µM] |
| --- | --- | --- |
| Cn1c(=O)oc2cc(N3CCN(C(=O)NCCc4ccccc4)C(C)(C)C3)ccc21 [Example 51, 2,2-Dimethyl-4-(3-Methyl-2-oxo-1,3-benzoxazol-6-yl)-N-(2-phenylethyl)piperazine-1-carboxamide] | 0.2 to 1 | 0.9 (≈ 0.368 µg/mL) |
| Cn1c(=O)oc2cc(C3CCN(C(=O)NCCOCc4ccccc4)C(C)(C)C3)ccc21 (stereo not shown) [Example 27, N-(2-Benzyloxyethyl)-2,2-dimethyl-4-(3-methyl-2-oxo-1,3-benzoxazol-6-yl)piperidine-1-carboxamide] | < 0.2 | 9.4 (≈ 4.11 µg/mL) |
| Cn1c(=O)oc2c(C3CCN(C(=O)NCCCCc4ccccc4)CC3)cccc21 [Example 7, 4-(3-Methyl-2-oxo-1,3-benzoxazol-7-yl)-N-(4-phenylbutyl)piperidine-1-carboxamide] | > 1 | 13 (≈ 5.3 µg/mL) |
| Cn1c(=O)oc2cc(N3CC(C)(C)N(C(=O)NCCCCc4ccccc4)CC3=O)ccc21 [Example 65, 2,2-Dimethyl-4-(3-methyl-2-oxo-1,3-benzoxazol-6-yl)-5-oxo-N-(4-phenylbutyl)piperazine-1-carboxamide] | < 0.2 | 18.9 (≈ 8.52 µg/mL) |
| CCCCCNC(=O)N1CCN(c2ccc3c(c2)oc(=O)n3C)CC1(C)C [Example 54, 2,2-Dimethyl-4-(3-methyl-2-oxo-1,3-benzoxazol-6-yl)-N-pentyl-piperazine-1-carboxamide] | 0.2 to 1 | 2.4 (≈ 0.899 µg/mL) |
| CN(C)CCn1c(=O)oc2cc(N3CCN(C(=O)NCCCCc4ccccc4)C(C)(C)C3)ccc21 [Example 58, 4-[3-[2-(Dimethylamino)ethyl]-2-oxo-1,3-benzoxazol-6-yl]-2,2-dimethyl-N-(4-phenylbutyl)piperazine-1-carboxamide] | < 0.2 | 41.8 (≈ 20.6 µg/mL) |
| Cn1c(=O)oc2cc(C3CCN(C(=O)NCCCCC4CC4)C(C)(C)C3)ccc21 (stereo not shown) [Example 31, N-(4-Cyclopropylbutyl)-2,2-dimethyl-4-(3-methyl-2-oxo-1,3-benzoxazol-6-yl)piperidine-1-carboxamide] | < 0.2 | 0.3 (≈ 0.12 µg/mL) |
| CC(C)CNC(=O)N1CCC(c2ccc3c(c2)oc(=O)n3C)C[C@@H]1C (stereo partly drawn) [Example 22, N-iso-Butyl (2S)-methyl-4-(3-methyl-2-oxo-1,3-benzoxazol-6-yl)piperidine-1-carboxamide] | 0.2 to 1 | 235 (≈ 81.2 µg/mL) |
| Cn1c(=O)oc2cc(C3CCN(C(=O)NCCC4CC4)C(C)(C)C3)ccc21 (stereo not shown) [Example 29, N-(2-Cyclopropylethyl)-2,2-dimethyl-4-(3-methyl-2-oxo-1,3-benzoxazol-6-yl)piperidine-1-carboxamide] | 0.2 to 1 | 250 (≈ 92.9 µg/mL) |
| CC(C)CNC(=O)N1CCC(c2ccc3c(c2)oc(=O)n3C)CC1 [Example 3, N-iso-Butyl 4-(3-methyl-2-oxo-1,3-benzoxazol-6-yl)piperidine-1-carboxamide] | > 1 | 126 (≈ 41.8 µg/mL) |
| CC(C)CNC(=O)N1CCC(c2cccc3c2oc(=O)n3C)CC1 [Example 8, N-iso-Butyl-4-(3-methyl-2-oxo-1,3-benzoxazol-7-yl)piperidine-1-carboxamide] | > 1 | 143 (≈ 47.4 µg/mL) |
| Cn1c(=O)oc2cc(N3CCN(C(=O)NCCOCc4ccccc4)C(C)(C)C3)ccc21 [Example 57, N-(2-Benzyloxyethyl)-2,2-dimethyl-4-(3-methyl-2-oxo-1,3-benzoxazol-6-yl)piperazine-1-carboxamide] | 0.2 to 1 | 3.5 (≈ 1.53 µg/mL) |
| CC1(C)CC(c2ccc3[nH]c(=O)oc3c2)CCN1C(=O)NCCCCc1ccccc1 (stereo not shown) [Example 23, 2,2-Dimethyl-4-(2-oxo-3H-1,3-benzoxazol-6-yl)-N-(4-phenylbutyl)piperidine-1-carboxamide] | < 0.2 | – |
| Cn1c(=O)oc2cc(C3CCN(C(=O)NCCC4CC4)CC3)ccc21 [Example 4, N-(2-Cyclopropylethyl)-4-(3-methyl-2-oxo-1,3-benzoxazol-6-yl)piperidine-1-carboxamide] | > 1 | – |
| COCCCNC(=O)N1CCC(c2ccc3c(c2)oc(=O)n3C)CC1(C)C (stereo not shown) [Example 30, N-(3-methoxypropyl)-2,2-dimethyl-4-(3-methyl-2-oxo-1,3-benzoxazol-6-yl)piperidine-1-carboxamide] | > 1 | – |
| CCCCCNC(=O)N1CCCC(c2ccc3c(c2)oc(=O)n3C)C1 (stereo not shown) [Example 13, 3-(3-Methy-2-oxo-1,3-benzoxazol-6-yl)-N-pentyl-piperidine-1-carboxamide] | > 1 | – |
| Cn1c(=O)oc2cc(N3CC4(COC4)N(C(=O)NCCCCc4ccccc4)CC3=O)ccc21 [Example 62, 8-(3-Methyl-2-oxo-1,3-benzoxazol-6-yl)-7-oxo-N-(4-phenylbutyl)-2-oxa-5,8-diazaspiro[3.5]nonane-5-carboxamide] | 0.2 to 1 | – |
| CCOCCNC(=O)N1CCCC(c2ccc3c(c2)oc(=O)n3C)C1 (stereo not shown) [Example 14, N-(2-Ethoxyethyl)-3-(3-methyl-2-oxo-1,3-benzoxazol-6-yl)piperidine-1-carboxamide] | > 1 | – |
| COCCCNC(=O)N1CCN(c2ccc3c(c2)oc(=O)n3C)CC1(C)C [Example 56, N-(3-Methoxypropyl)-2,2-dimethyl-4-(3-methyl-2-oxo-1,3-benzoxazol-6-yl)piperazine-1-carboxamide] | > 1 | – |

More lines, now with the values ahead:

| IC50 [1] [µM] | solubility [2] [µM] | Compound |
| --- | --- | --- |
| < 0.2 | 2.2 | CC1CC(c2ccc3c(c2)oc(=O)n3C)CCN1C(=O)NCCCCc1ccccc1 (mixture of isomers) [Example 16, 2-methyl-4-(3-methyl-2-oxo-1,3-benzoxazol-6-yl)-N-(4-phenylbutyl)piperidine-1-carboxamide] |
| > 1 | 30 (≈ 12.2 µg/mL) | Cn1c(=O)oc2cc(C3CCCCN3C(=O)NCCCCc3ccccc3)ccc21 (stereo not shown) [Example 37, 2-(3-Methyl-2-oxo-1,3-benzoxazol-6-yl)-N-(4-phenylbutyl)piperidine-1-carboxamide] |
| > 1 | 224 (≈ 94.6 µg/mL) | CN1CCN(C(=O)NCCCCc2ccccc2)C(c2ccc3c(c2)oc(=O)n3C)C1 (stereo not shown) [Example 40, 4-Methyl-2-(3-methyl-2-oxo-1,3-benzoxazol-6-yl)-N-(4-phenylbutyl)piperazine-1-carboxamide] |
| < 0.2 | 0.3 (≈ 0.131 µg/mL) | Cn1c(=O)oc2cc(N3CCN(C(=O)NCCCCc4ccccc4)C(C)(C)C3)ccc21 [Example 50, 2,2-Dimethyl-4-(3-methyl-2-oxo-1,3-benzoxazol-6-yl)-N-(4-phenylbutyl)piperazine-1-carboxamide] |
| < 0.2 | 0.5 (≈ 0.218 µg/mL) | CC1CN(c2ccc3c(c2)oc(=O)n3C)CC(C)N1C(=O)NCCCCc1ccccc1 (stereo not shown) [Example 59, 2,6-Dimethyl-4-(3-methyl-2-oxo-1,3-benzoxazol-6-yl)-N-(4-phenylbutyl)piperazine-1-carboxamide] |
| > 1 | – | Cn1c(=O)oc2cc(C3CCCN3C(=O)NCCCCc3ccccc3)ccc21 (stereo not shown) [Example 44, 2-(3-Methyl-2-oxo-1,3-benzoxazol-6-yl)-N-(4-phenylbutyl)pyrrolidine-1-carboxamide] |
| > 1 | – | Cn1c(=O)oc2cc(N3CCN(C(=O)NCCCCc4ccccc4)C4(CC4)C3)ccc21 [Example 60, 7-(3-Methyl-2-oxo-1,3-benzoxazol-6-yl)-N-(4-phenylbutyl)-4,7-diazaspiro[2.5]octane-4-carboxamide] |
| > 1 | – | Cn1c(=O)oc2cc(C3CCN(C(=O)NCCCCc4ccccc4)C4(COC4)C3)ccc21 (stereo not shown) [Example 34, 8-(3-Methyl-2-oxo-1,3-benzoxazol-6-yl)-N-(4-phenylbutyl)-2-oxa-5-azaspiro[3.5]nonane-5-carboxamide] |
| > 1 | – | Cn1c(=O)oc2cc(N3CC4CCC(C3)N4C(=O)NCCCCc3ccccc3)ccc21 [Example 61, 3-(3-Methyl-2-oxo-1,3-benzoxazol-6-yl)-N-(4-phenylbutyl)-3,8-diazabicyclo[3.2.1]octane-8-carboxamide] |
| > 1 | – | Cn1c(=O)oc2cc(C3CCN(C(=O)NCCCCc4ccccc4)CC3)ccc21 [Example 2, 4-(3-Methyl-2-oxo-1,3-benzoxazol-6-yl)-N-(4-phenylbutyl)piperidine-1-carboxamide] |
| 0.2 to 1 | – | C[C@@H]1CC(c2ccc3c(c2)oc(=O)n3C)CCN1C(=O)NCCc1ccccc1 (mixture of isomers) [Example 18, (2R)-2-Methyl-4-(3-methyl-2-oxo-1,3-benzoxazol-6-yl)-N-(2-phenylethyl)piperidine-1-carboxamide] |
| > 1 | – | Cn1c(=O)oc2cc(C3COCCN3C(=O)NCCCCc3ccccc3)ccc21 (stereo not shown) [Example 38, 3-(3-Methyl-2-oxo-1,3-benzoxazol-6-yl)-N-(4-phenylbutyl)morpholine-4-carboxamide] |
| > 1 | – | Cn1c(=O)oc2cc(N3CCC4(CC3)CN(C(=O)NCCCCc3ccccc3)C4)ccc21 [Example 68, 7-(3-methyl-2-oxo-1,3-benzoxazol-6-yl)-N-(4-phenylbutyl)-2,7-diazaspiro[3.5]nonane-2-carboxamide] |
